Measurements taken from PubChem BioAssay AID2060599 (Molecular Pharmacology Branch, DTP, NCI, 2025).
Several values for one entry are separate records, joined by “and”; a condition that tells them apart may be missing. Identical values can stand only once.

System: 817829-284-R-J1-PDC complex spheroids, viability
Test: Anticancer human tumor 817829-284-R-J1-PDC patient-derived colon adenocarcinoma cell line growth inhibition [CLK]
Conditions: for viability, T/C: stronger effect = lower value
Procedure, shortened: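 Multi-cell-type spheroids combined patient-derived tumor cells with HUVEC endothelial cells and human mesenchymal stem cells. Paired agents were dosed in half-log steps down from about clinical Cmax, or from 10 microM where Cmax was unknown.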

[1] = curve of first compound, second compound 0.0316 µM
[2] = curve of first compound, second compound 0.1 µM
[3] = curve of first compound, second compound 0.316 µM
[4] = curve of first compound, second compound 1 µM
[5] = curve of first compound, second compound 3.16 µM
[6] = curve of first compound, second compound 10 µM
[7] = second compound 0.0316 µM, first compound 0.0316 µM
[8] = second compound 0.0316 µM, first compound 0.1 µM
[9] = second compound 0.0316 µM, first compound 0.316 µM
[10] = second compound 0.0316 µM, first compound 1 µM
[11] = second compound 0.0316 µM, first compound 3.16 µM
[12] = second compound 0.0316 µM, first compound 10 µM
[13] = second compound 0.1 µM, first compound 0.0316 µM
[14] = second compound 0.1 µM, first compound 0.1 µM
[15] = second compound 0.1 µM, first compound 0.316 µM
[16] = second compound 0.1 µM, first compound 1 µM
[17] = second compound 0.1 µM, first compound 3.16 µM
[18] = second compound 0.1 µM, first compound 10 µM
[19] = second compound 0.316 µM, first compound 0.0316 µM
[20] = second compound 0.316 µM, first compound 0.1 µM
[21] = second compound 0.316 µM, first compound 0.316 µM
[22] = second compound 0.316 µM, first compound 1 µM
[23] = second compound 0.316 µM, first compound 3.16 µM
[24] = second compound 0.316 µM, first compound 10 µM
[25] = second compound 1 µM, first compound 0.0316 µM
[26] = second compound 1 µM, first compound 0.1 µM
[27] = second compound 1 µM, first compound 0.316 µM
[28] = second compound 1 µM, first compound 1 µM
[29] = second compound 1 µM, first compound 3.16 µM
[30] = second compound 1 µM, first compound 10 µM
[31] = second compound 3.16 µM, first compound 0.0316 µM
[32] = second compound 3.16 µM, first compound 0.1 µM
[33] = second compound 3.16 µM, first compound 0.316 µM
[34] = second compound 3.16 µM, first compound 1 µM
[35] = second compound 3.16 µM, first compound 3.16 µM
[36] = second compound 3.16 µM, first compound 10 µM
[37] = second compound 10 µM, first compound 0.0316 µM
[38] = second compound 10 µM, first compound 0.1 µM
[39] = second compound 10 µM, first compound 0.316 µM
[40] = second compound 10 µM, first compound 1 µM
[41] = second compound 10 µM, first compound 3.16 µM
[42] = second compound 10 µM, first compound 10 µM
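Also: spheroids exposed to the agents for seven days before readout.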

CCCS(=O)(=O)Nc1ccc(F)c(C(=O)c2c[nH]c3ncc(-c4ccc(Cl)cc4)cc23)c1F + CN1CCN(c2cc(C(=O)Nc3cc4cc(-c5cnn(C)c5)ccc4cn3)ccn2)CC1
IC50 [1]: < 31.6 nM
IC50 [2]: < 31.6 nM
IC50 [3]: < 31.6 nM
IC50 [4]: < 31.6 nM
IC50 [5]: < 31.6 nM
IC50 [6]: < 31.6 nM
viability, T/C [7]: 53.5%
viability, T/C [8]: 41.8%
viability, T/C [9]: 39.8%
viability, T/C [10]: 43.8%
viability, T/C [11]: 35.6%
viability, T/C [12]: 18.4%
viability, T/C [13]: 19%
viability, T/C [14]: 17.5%
viability, T/C [15]: 14.2%
viability, T/C [16]: 11.8%
viability, T/C [17]: 12.2%
viability, T/C [18]: 3.08%
viability, T/C [19]: 1.39%
viability, T/C [20]: 1.67%
viability, T/C [21]: 1.88%
viability, T/C [22]: 1.17%
viability, T/C [23]: 1.2%
viability, T/C [24]: 0.66%
viability, T/C [25]: 0.09%
viability, T/C [26]: 0.11%
viability, T/C [27]: 0.15%
viability, T/C [28]: 0.09%
viability, T/C [29]: 0.09%
viability, T/C [30]: 0.08%
viability, T/C [31]: 0.09%
viability, T/C [32]: 0.18%
viability, T/C [33]: 0.1%
viability, T/C [34]: 0.2%
viability, T/C [35]: 0.13%
viability, T/C [36]: 0.09%
viability, T/C [37]: 0.06%
viability, T/C [38]: 0.08%
viability, T/C [39]: 0.1%
viability, T/C [40]: 0.18%
viability, T/C [41]: 0.21%
viability, T/C [42]: 0.17%

CC(=O)O[C@H]1C(=O)[C@@]2(C)[C@H]([C@H](OC(=O)c3ccccc3)[C@]3(O)C[C@H](OC(=O)[C@H](O)[C@@H](NC(=O)c4ccccc4)c4ccccc4)C(C)=C1C3(C)C)[C@]1(OC(C)=O)CO[C@@H]1C[C@@H]2O + CNC(=O)c1ccc(Nc2nc(OC3CCCC3)c3c(-c4ccc5nc(C)oc5c4)c[nH]c3n2)c(OC)c1
IC50 [1]: < 31.6 nM
IC50 [2]: < 31.6 nM
IC50 [3]: < 31.6 nM
IC50 [4]: < 31.6 nM
IC50 [5]: < 31.6 nM
IC50 [6]: < 31.6 nM
viability, T/C [7]: 10.8%
viability, T/C [8]: 11.5%
viability, T/C [9]: 10.8%
viability, T/C [10]: 10.6%
viability, T/C [11]: 11.6%
viability, T/C [12]: 16.2%
viability, T/C [13]: 24.2%
viability, T/C [14]: 25.3%
viability, T/C [15]: 20.2%
viability, T/C [16]: 23.8%
viability, T/C [17]: 28.9%
viability, T/C [18]: 26.8%
viability, T/C [19]: 29.5%
viability, T/C [20]: 31.6%
viability, T/C [21]: 43.8%
viability, T/C [22]: 38.9%
viability, T/C [23]: 45.1%
viability, T/C [24]: 32.6%
viability, T/C [25]: 31.7%
viability, T/C [26]: 23.7%
viability, T/C [27]: 24%
viability, T/C [28]: 30.4%
viability, T/C [29]: 22.6%
viability, T/C [30]: 22.8%
viability, T/C [31]: 26.2%
viability, T/C [32]: 23.9%
viability, T/C [33]: 17.7%
viability, T/C [34]: 20.1%
viability, T/C [35]: 23.3%
viability, T/C [36]: 23.3%
viability, T/C [37]: 18.6%
viability, T/C [38]: 23.3%
viability, T/C [39]: 29.5%
viability, T/C [40]: 24.3%
viability, T/C [41]: 20.5%
viability, T/C [42]: 19.9%

COc1c(OCCCN2CCOCC2)ccc2c3n(c(=NC(=O)c4cnc(N)nc4)nc12)CCN3
viability, T/C (compound 0.00316 µM): 96% and 133%
viability, T/C (compound 0.01 µM): 52% and 68.5%
viability, T/C (compound 0.0316 µM): 29% and 55.5%
viability, T/C (compound 0.1 µM): 18.8% and 16.3%
viability, T/C (compound 0.316 µM): 7.17% and 4.92%
viability, T/C (compound 1 µM): 2.06% and 2.01%
IC50 (curve of compound): 11.9 nM and 24.8 nM

CCc1c2c(nc3ccc(O)cc13)-c1cc3c(c(=O)n1C2)COC(=O)[C@]3(O)CC
viability, T/C (compound 0.00316 µM): 23.1% and 29.4%
viability, T/C (compound 0.01 µM): 17.5% and 16.5%
viability, T/C (compound 0.0316 µM): 13.9% and 16.5%
viability, T/C (compound 0.1 µM): 9.42% and 10.3%
viability, T/C (compound 0.316 µM): 6.24% and 7.57%
viability, T/C (compound 1 µM): 3.66% and 4.31%
IC50 (curve of compound): < 3.16 nM
